Data published in PubChem BioAssay (NCI).
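Briefly, cells in 96-well plates were exposed to five compound concentrations for 48 h, and endpoints were estimated by linear interpolation. TGI: total growth inhibition.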

Columns and labels:
Test in all cases: DTP human tumour cell line panel, 48 h
SNB-19 CNS = test system: SNB-19 CNS
CCRF-CEM leukemia = test system: CCRF-CEM leukemia
K-562 leukemia = test system: K-562 leukemia
OVCAR-4 ovarian = test system: OVCAR-4 ovarian
COLO 205 colon = test system: COLO 205 colon
BT-549 breast = test system: BT-549 breast
SF-539 CNS = test system: SF-539 CNS
M14 melanoma = test system: M14 melanoma
HS 578T breast = test system: HS 578T breast
PC-3 prostate = test system: PC-3 prostate
LOX IMVI melanoma = test system: LOX IMVI melanoma
SW-620 colon = test system: SW-620 colon
SK-MEL-28 melanoma = test system: SK-MEL-28 melanoma
MOLT-4 leukemia = test system: MOLT-4 leukemia
T-47D breast = test system: T-47D breast
NCI/ADR-RES ovarian = test system: NCI/ADR-RES ovarian
TK-10 renal = test system: TK-10 renal
U251 CNS = test system: U251 CNS
NCI-H226 lung = test system: NCI-H226 lung
SF-295 CNS = test system: SF-295 CNS
SNB-75 CNS = test system: SNB-75 CNS
DU-145 prostate = test system: DU-145 prostate
MDA-MB-231 breast = test system: MDA-MB-231 breast
HL-60(TB) leukemia = test system: HL-60(TB) leukemia
NCI-H460 lung = test system: NCI-H460 lung
MALME-3M melanoma = test system: MALME-3M melanoma
UO-31 renal = test system: UO-31 renal
SK-MEL-2 melanoma = test system: SK-MEL-2 melanoma
CAKI-1 renal = test system: CAKI-1 renal
MDA-N = test system: MDA-N
OVCAR-5 ovarian = test system: OVCAR-5 ovarian
HCT-15 colon = test system: HCT-15 colon
OVCAR-3 ovarian = test system: OVCAR-3 ovarian
RXF 393 renal = test system: RXF 393 renal
A549 NSCLC = test system: A549 NSCLC
KM12 colon = test system: KM12 colon
SR leukemia = test system: SR leukemia
HCT-116 colon = test system: HCT-116 colon
ACHN renal = test system: ACHN renal
MCF7 breast = test system: MCF7 breast
EKVX NSCLC = test system: EKVX NSCLC
HOP-92 NSCLC = test system: HOP-92 NSCLC
NCI-H522 lung = test system: NCI-H522 lung
MDA-MB-435 = test system: MDA-MB-435
786-0 renal = test system: 786-0 renal
SN12C renal = test system: SN12C renal
RPMI-8226 leukemia = test system: RPMI-8226 leukemia
HCC-2998 colon = test system: HCC-2998 colon
OVCAR-8 ovarian = test system: OVCAR-8 ovarian
SF-268 CNS = test system: SF-268 CNS
UACC-62 melanoma = test system: UACC-62 melanoma
UACC-257 melanoma = test system: UACC-257 melanoma
IGROV1 ovarian = test system: IGROV1 ovarian
SK-MEL-5 melanoma = test system: SK-MEL-5 melanoma
HOP-62 NSCLC = test system: HOP-62 NSCLC
NCI-H23 lung = test system: NCI-H23 lung
SK-OV-3 ovarian = test system: SK-OV-3 ovarian
HT29 colon = test system: HT29 colon

Cc1ccc2c(c1C)CC1(Cc3ccc(C)c(C)c3C1=O)C2=O (stereo not given)
TGI (SNB-19 CNS): > 100 µM | TGI (CCRF-CEM leukemia): > 100 µM | TGI (K-562 leukemia): > 100 µM | TGI (OVCAR-4 ovarian): > 100 µM | TGI (COLO 205 colon): > 100 µM | TGI (BT-549 breast): > 100 µM | TGI (SF-539 CNS): > 100 µM | TGI (M14 melanoma): > 100 µM | TGI (HS 578T breast): > 100 µM | TGI (PC-3 prostate): > 100 µM | TGI (LOX IMVI melanoma): > 100 µM | TGI (SW-620 colon): > 100 µM | TGI (SK-MEL-28 melanoma): > 100 µM | TGI (MOLT-4 leukemia): > 100 µM | TGI (T-47D breast): > 100 µM | TGI (NCI/ADR-RES ovarian): > 100 µM | TGI (TK-10 renal): > 100 µM | TGI (U251 CNS): > 100 µM | TGI (NCI-H226 lung): > 100 µM | TGI (SF-295 CNS): > 100 µM | TGI (SNB-75 CNS): > 100 µM | TGI (DU-145 prostate): > 100 µM | TGI (MDA-MB-231 breast): > 100 µM | TGI (HL-60(TB) leukemia): > 100 µM | TGI (NCI-H460 lung): > 100 µM | TGI (MALME-3M melanoma): > 100 µM | TGI (UO-31 renal): > 100 µM | TGI (SK-MEL-2 melanoma): > 100 µM | TGI (CAKI-1 renal): > 100 µM | TGI (MDA-N): > 100 µM | TGI (OVCAR-5 ovarian): > 100 µM | TGI (HCT-15 colon): > 100 µM | TGI (OVCAR-3 ovarian): > 100 µM | TGI (RXF 393 renal): 54.3 µM | TGI (A549 NSCLC): > 100 µM | TGI (KM12 colon): > 100 µM | TGI (SR leukemia): > 100 µM | TGI (HCT-116 colon): > 100 µM | TGI (ACHN renal): > 100 µM | TGI (MCF7 breast): > 100 µM | TGI (EKVX NSCLC): > 100 µM | TGI (HOP-92 NSCLC): 87 µM | TGI (NCI-H522 lung): > 100 µM | TGI (MDA-MB-435): > 100 µM | TGI (786-0 renal): > 100 µM | TGI (SN12C renal): > 100 µM | TGI (RPMI-8226 leukemia): > 100 µM | TGI (HCC-2998 colon): > 100 µM | TGI (OVCAR-8 ovarian): > 100 µM | TGI (SF-268 CNS): > 100 µM | TGI (UACC-62 melanoma): > 100 µM | TGI (UACC-257 melanoma): > 100 µM | TGI (IGROV1 ovarian): > 100 µM | TGI (SK-MEL-5 melanoma): > 100 µM

Cc1cc2nnn(C3CCCCO3)c2cc1C (stereo not given)
TGI (HOP-62 NSCLC): > 100 µM | TGI (SNB-19 CNS): > 100 µM | TGI (CCRF-CEM leukemia): > 100 µM | TGI (K-562 leukemia): > 100 µM | TGI (OVCAR-4 ovarian): > 100 µM | TGI (COLO 205 colon): > 100 µM | TGI (BT-549 breast): > 100 µM | TGI (SF-539 CNS): > 100 µM | TGI (M14 melanoma): > 100 µM | TGI (HS 578T breast): > 100 µM | TGI (PC-3 prostate): > 100 µM | TGI (MOLT-4 leukemia): > 100 µM | TGI (T-47D breast): > 100 µM | TGI (NCI/ADR-RES ovarian): > 100 µM | TGI (TK-10 renal): > 100 µM | TGI (U251 CNS): > 100 µM | TGI (NCI-H226 lung): > 100 µM | TGI (SF-295 CNS): > 100 µM | TGI (SNB-75 CNS): > 100 µM | TGI (DU-145 prostate): > 100 µM | TGI (NCI-H23 lung): > 100 µM | TGI (MDA-MB-231 breast): > 100 µM | TGI (NCI-H460 lung): > 100 µM | TGI (MALME-3M melanoma): > 100 µM | TGI (SK-OV-3 ovarian): > 100 µM | TGI (UO-31 renal): > 100 µM | TGI (SK-MEL-2 melanoma): > 100 µM | TGI (CAKI-1 renal): > 100 µM | TGI (MDA-N): > 100 µM | TGI (OVCAR-5 ovarian): > 100 µM | TGI (HCT-15 colon): > 100 µM | TGI (OVCAR-3 ovarian): > 100 µM | TGI (RXF 393 renal): > 100 µM | TGI (HT29 colon): > 100 µM | TGI (A549 NSCLC): > 100 µM | TGI (KM12 colon): > 100 µM | TGI (SR leukemia): > 100 µM | TGI (HCT-116 colon): > 100 µM | TGI (ACHN renal): > 100 µM | TGI (MCF7 breast): > 100 µM | TGI (EKVX NSCLC): > 100 µM | TGI (NCI-H522 lung): > 100 µM | TGI (MDA-MB-435): > 100 µM | TGI (786-0 renal): > 100 µM | TGI (SN12C renal): > 100 µM | TGI (HCC-2998 colon): > 100 µM | TGI (OVCAR-8 ovarian): > 100 µM | TGI (UACC-62 melanoma): > 100 µM | TGI (UACC-257 melanoma): > 100 µM | TGI (IGROV1 ovarian): > 100 µM | TGI (SK-MEL-5 melanoma): > 100 µM
